Patent US11046698B2, “TYK2 inhibitors and uses thereof” (Nimbus Lakshmi, Inc., priority 2017, dated 2021)
pIC50, pKd: −log10 of the molar value.

Experiments:
Tyk2 kinase domain (JH1) = Tyk2 kinase domain (JH1) (Homo sapiens (Human), UniProt P29597); assay: Tyk2 Radioactive Kinase Assay; format: biochemical; details: ATP 10 μM
Method: (§1) The Tyk2 and JAK2 radioactive kinase assay measures the percent inhibiton at the Tyk2 kinase domain (JH1) and the percent inhibiton at the JAK2 kinase domain (JH1). Results of the assay are expressed as percent inhibition at 10 μM.

JAK2 kinase domain (JH1) = JAK2 kinase domain (JH1) (Homo sapiens (Human), UniProt O60674); assay: JAK2 Radioactive Kinase Assay; format: biochemical; details: ATP 10 μM
JAK2 kinase domain (JH1), sequence (O60674 849-1124): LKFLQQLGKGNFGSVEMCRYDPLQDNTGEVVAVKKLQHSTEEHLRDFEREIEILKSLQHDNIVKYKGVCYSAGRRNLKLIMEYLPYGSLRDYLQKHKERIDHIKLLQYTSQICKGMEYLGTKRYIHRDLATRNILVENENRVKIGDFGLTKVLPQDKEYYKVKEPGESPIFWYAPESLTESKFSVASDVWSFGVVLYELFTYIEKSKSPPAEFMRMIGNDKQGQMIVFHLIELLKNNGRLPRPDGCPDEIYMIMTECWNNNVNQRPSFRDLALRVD
Method: as §1

[1] = system: IL-12 induced STAT4 phophorylation mediated by Tyk2/JAK2 (heterodimeric complex); assay: IL-12 Induced pSTAT4 in Human PBMC; format: cell-based; details: 1.7 ng/mL IL-12
Text: The IL-12 Induced pSTAT4 assay evaluates the inhibition of IL-12 induced STAT4 phophorylation mediated by Tyk2/JAK2 (heterodimeric complex).

[2] = system: GM-CSF induced STAT5 phosphorylation mediated by the JAK2/JAK2 homodimeric complex; assay: GM-CSF Induced pSTAT5 in Human PBMC; details: 20 min, read-out: PBMC_GMCSF_pSTAT5 IC50 (μM), human PBMC, GM-CSF 5 ng/mL for 20 minutes, pSTAT5 by MSD
[3] = target: human TYK2 (JH2domain-pseudokinase) (Homo sapiens (Human), UniProt P29597); assay: TYK2 JH2 Domain Binding Assay (KINOMEscan, DiscoveRx)
human TYK2 (JH2domain-pseudokinase), sequence (P29597 556-888): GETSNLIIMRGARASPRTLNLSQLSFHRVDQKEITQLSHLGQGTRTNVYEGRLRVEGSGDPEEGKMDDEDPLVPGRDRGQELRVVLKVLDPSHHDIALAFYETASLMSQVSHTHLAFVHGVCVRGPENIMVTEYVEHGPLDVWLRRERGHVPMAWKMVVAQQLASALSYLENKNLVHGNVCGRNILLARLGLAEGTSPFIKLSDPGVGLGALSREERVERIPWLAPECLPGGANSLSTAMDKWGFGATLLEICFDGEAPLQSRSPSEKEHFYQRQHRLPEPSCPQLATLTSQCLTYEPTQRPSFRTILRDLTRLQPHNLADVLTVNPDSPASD
Method: Binding constants for compounds of the present invention against the JH2 domain were determined by the following protocol for a KINOMEscan® assay (DiscoveRx). A fusion protein of a partial length construct of human TYK2 (JH2domain-pseudokinase) (amino acids G556 to D888 based on reference sequence NP_003322.3) and the DNA binding domain of NFkB was expressed in transiently transfected HEK293 cells. From these HEK 293 cells, extracts were prepared in M-PER extraction buffer (Pierce) in the presence of Protease Inhibitor Cocktail Complete (Roche) and Phosphatase Inhibitor Cocktail Set II (Merck) per manufacturers' instructions. The TYK2(JH2domain-pseudokinase) fusion protein was labeled with a chimeric double-stranded DNA tag containing the NFkB binding site (5′-[…]-3′) fused to an amplicon for qPCR readout, which was added directly to the expression extract (the final concentration of DNA-tag in the binding reaction is 0.1 nM). […]
Extracts were used directly in binding assays without any enzyme purification steps at a ≥10,000-fold overall stock dilution (final DNA-tagged enzyme concentration <0.1 nM). […] Kds were determined using an 11-point 3-fold compound dilution series with three DMSO control points. […]
Kds were determined using an 11-point 3-fold compound dilution series with three DMSO control points. […] The Kds were determined using a compound top concentration of 30,000 nM. […]

Tyk2 kinase domain (JH1), sequence (P29597 897-1176): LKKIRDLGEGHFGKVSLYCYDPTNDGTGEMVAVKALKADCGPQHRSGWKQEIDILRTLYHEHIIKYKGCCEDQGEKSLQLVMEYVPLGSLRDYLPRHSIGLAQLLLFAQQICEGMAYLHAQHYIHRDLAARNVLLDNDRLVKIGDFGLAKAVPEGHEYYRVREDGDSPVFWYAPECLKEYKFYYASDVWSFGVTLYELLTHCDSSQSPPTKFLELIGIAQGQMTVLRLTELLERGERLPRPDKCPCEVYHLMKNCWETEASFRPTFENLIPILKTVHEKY

## CNc1cc(Nc2cccn([C@H]3CC[C@@H](N4CCOCC4)CC3)c2=O)nc2c(C(=O)N[C@H]3C[C@H]3F)cnn12 [I-304]
Tyk2 kinase domain (JH1); 10 μM compound
  Tyk2 JH1% Inhibition @ 10 μM: A (had a percent inhibition at 10 μM lower than 50)
JAK2 kinase domain (JH1); 10 μM compound
  JAK2 JH1% Inhibition @ 10 μM: A (had a percent inhibition at 10 μM lower than 50)

## CNc1cc(Nc2cccn([C@H]3CC[C@](C)(OC)CC3)c2=O)nc2c(C(=O)N[C@H]3C[C@H]3F)cnn12 [I-362]
[1]
  pIC50: > 7.00
[2]
  IC50: > 50 µM

## CNc1cc(Nc2cccnc2OC)nc2c(C(=O)NC3CC4(COC4)C3)cnn12 [I-408]
Tyk2 kinase domain (JH1); 10 μM compound
  inhibition at 10 µM: < 50%
JAK2 kinase domain (JH1); 10 μM compound
  inhibition at 10 µM: < 50%

## CNc1cc(Nc2cccc([C@@H]3CCCOC3)n2)nc2c(C(=O)N[C@H]3CC[C@@H]3O)cnn12 [I-664]
Tyk2 kinase domain (JH1); 10 μM compound
  inhibition at 10 µM: < 50%
JAK2 kinase domain (JH1); 10 μM compound
  inhibition at 10 µM: < 50%

## CNc1cc(Nc2cccn([C@H]3CC[C@H](OC)CC3)c2=O)nc2c(C(=O)N[C@H]3COC[C@H]3O)cnn12 [I-746]
Tyk2 kinase domain (JH1); 10 μM compound
  Tyk2 JH1% Inhibition @ 10 μM: A (had a percent inhibition at 10 μM lower than 50)
JAK2 kinase domain (JH1); 10 μM compound
  JAK2 JH1% Inhibition @ 10 μM: A (had a percent inhibition at 10 μM lower than 50)

## CNc1cc(Nc2cc(Cl)cn([C@@H]3CCCOC3)c2=O)nc2c(C(=O)N[C@@H]3C[C@@H]3F)cnn12 [I-773]
[1]
  pIC50: > 7.00
[2]
  IC50: > 12.5 µM

## CNc1cc(Nc2cccn([C@H]3CC[C@@H]3OC)c2=O)nc2c(C(=O)NC3CC3)cnn12 [I-936]
[3]
  pKd: 9.00 to 9.70

## CNc1cc(Nc2cccn3ccnc23)cc2c(C(=O)N[C@H]3CC[C@@H]3OC)cnn12 [I-1052]
[3]
  pKd: > 9.70
Tyk2 kinase domain (JH1); compound at 10 μM
  inhibition at 10 µM: < 50%
JAK2 kinase domain (JH1); compound at 10 μM
  inhibition at 10 µM: < 50%
[2]
  IC50: > 50 µM

## CNc1cc(-c2cn([C@H]3CCN(CCF)C3)c3ncccc23)nc2c(C(=O)N[C@@H]3C[C@@H]3F)cnn12 [I-1362]
[1]
  pIC50: > 7.00

## CNc1cc(-c2cn(C(C)C)c3ncc(F)cc23)nc2c(C(=O)N[C@H]3CC[C@H]3O)cnn12 [I-1387]
[1]
  pIC50: > 7.00
